For assay [1], the system named is hPSC-derived hematopoietic cells (iPSC line RB9-CB1). Nature of the assay: hPSC-to-hematopoietic differentiation, flow cytometry of HSC-like surface phenotype (Example 2). The format is cell-based, human. To be noted: for HSC-like phenotype: specificity controls for cAMP, day 14; for concentration required to increase HSC-like phenotype as compared to Forskolin: day 14, representative experiment; for frequency of HSC-like cells after inhibition / hematopoietic cell generation efficiency / blood emergence (CD43): inhibition on day 10 and day 12, analysis day 14. As to the method:
Human iPSC line RB9-CB1 derived from cord blood endothelial cells was cultured on irradiated mouse embryonic fibroblasts (MEFs) in Dulbecco's Modified Eagle Medium:Nutrient Mixture F-12 (DMEM/F12) supplemented with 20% KnockOut-serum replacement (KOSR), 2 mM L-glutamine, 0.1 mM non-essential amino acids, 0.1 mM 2-mercaptoethanol and 10 ng/ml basic fibroblast growth factor, all from Thermo Fischer Scientific Inc. (Waltham, Mass., USA). The cells were incubated in a humidified incubator at […] and 5% CO2.
Embryoid bodies (EBs) were prepared after incubating the pluripotent stem cell colonies with 2 mg/ml Dispase (Thermo Fischer Scientific Inc.), followed by gentle pipetting. The detached colonies were washed twice with 20% KOSR containing DMEM/F12, before plating in ultra low-adherence suspension culture dishes (Corning Inc., Corning, N.Y., USA) to form EBs for 8 days. During suspension culture, MesoTotal™ HPC/HSC Differentiation System (Primorigen Biosciences, Madison, Wis., USA) was used to specify the EBs towards mesoderm commitment. At day 8, EBs were plated on 0.08 μg/mm2 Matrigel™ (BD Biosciences, Franklin Lakes, N.J., USA) and further differentiation towards hematopoietic cells was carried out till day 14 in MesoTotal medium.
(§1) Application of fresh medium and treatment with 10 μM Forskolin (Stemgent, Cambridge, Mass., USA), 500 μM IBMX (3-isobutyl-1-methylxanthine, Santa Cruz Biotechnology, Dallas, Tex., USA) was carried out at day 10 and day 12 of differentiation. To inhibit PKA and Epac, 50 μM PKA inhibitor (Rp-8-CPT-cAMPS) and 20 μM Epac inhibitor (ESI-09) (both from BIOLOG Life Science Institute, Bremen, Germany) were used (20 min pretreatment followed by cAMP induction) on day 10 and day 12 of differentiation and the cells were analyzed on day 14. To analyze hemogenic endothelium, PKA and Epac were inhibited on day 6 and day 8 and the cells were analyzed on day 10. The distance between center of an EB and outer edge of its cellular spread was analyzed using ImageJ (developed at the National Institutes of Health, USA). Colony Formation Assay
(In general: In flow cytometry, cells or beads pass a laser one at a time.)

The subject of assay [2] is differentiating human ES/iPS cells. The assay can be described thus: hPS-to-blood differentiation, FACS analysis of hematopoietic subsets (Example 1). Format: cell-based.
Assay [3] concerns adherent endothelial-like cells of plated EBs. The assay can be described thus: Radial spreading of adherent endothelial-like cells from embryoid bodies (ImageJ). Format: cell-based, human. The conditions noted are these: in the absence or presence of Forskolin+IBMX. On the procedure:
Embryoid bodies (EBs) were prepared after incubating the pluripotent stem cell colonies with 2 mg/ml Dispase (Thermo Fischer Scientific Inc.), followed by gentle pipetting. The detached colonies were washed twice with 20% KOSR containing DMEM/F12, before plating in ultra low-adherence suspension culture dishes (Corning Inc., Corning, N.Y., USA) to form EBs for 8 days. During suspension culture, MesoTotal™ HPC/HSC Differentiation System (Primorigen Biosciences, Madison, Wis., USA) was used to specify the EBs towards mesoderm commitment. […]
as §1, with “Colony Formation Assay” left out

Assay [4] relates to hemogenic endothelium phenotype cells (CD43-CD34+CXCR4-CD73-Vecad+). Nature of the assay: Hemogenic endothelium phenotype by flow cytometry. To be noted: inhibition on day 6 and day 8, analysis day 10; in the absence or presence of Forskolin+IBMX. Format: cell-based, human. As to the method: as §1
Assay [5] deals with CXCR4 in hPSC-derived hematopoietic cells. Nature of the assay: CXCR4 surface expression by flow cytometry. The conditions noted are these: with or without cAMP induction, compared to the control. Format: cell-based, human. On the procedure:
as §1

The test system of assay [6] is hPSC-derived hematopoietic cells. The assay can be described thus: ROS detection with CellROX Deep Red by flow cytometry. Format: cell-based, human. The conditions noted are these: day 14; versus control. On the procedure:
as §1

Assay [7] has as its system hematopoietic cells derived from human ES/iPS cells. Nature of the assay: Colony forming unit assay in methylcellulose (Example 1). The format is cell-based. As to the method:
CFU potential of hematopoietic cells after the 14 day differentiation assay was assessed by plating 2×10^4 cells in Methocult […] (Stem Cell Technologies) supplemented with human SCF (25 ng/ml), GM-CSF (50 ng/ml), IL3 (25 ng/ml) and Erythropoietin (5 U/ml). Cells were incubated in a humidified incubator at 37° C., 5% CO2 for 14 days and colonies were quantified by bright-field microscopy.

The next assay has as its system human cord blood. The conditions noted are these: PGE2-mediated cAMP activation; cited from earlier work.
For another assay, the system named is HSC egress from the BM. To be noted: administration to mice; cited from earlier work.
The mark [8] stands for this setting: NE treatment (10 μM, 300 μM) at day 10 and 12, analysis day 14.

In the case of `C=C[C@@]1(C)CC(=O)[C@@H]2[C@@]3(C)CCCC(C)(C)[C@@H]3[C@H](O)[C@H](OC(C)=O)[C@@]2(C)O1` [1,9-dideoxy Forskolin, 1,9-Dideoxyforskolin], the HSC-like phenotype result in assay [1] was “cannot induce”.
For the molecule `Nc1ncnc2c1nc(Br)n2[C@@H]1O[C@@H]2COP(=O)(O)O[C@H]2[C@H]1O` [8-Br-cAMP, 8-bromo-adenosine-3′,5′-cyclic monophosphate], in [1], the “concentration required to increase HSC-like phenotype as compared to Forskolin” value amounted to 10 fold and the HSC-like phenotype result is “upregulated”.
On to `Cc1ccc(OCC(O)C(C)NC(C)C)c2c1CCC2` (stereo not shown) [ADRB2 antagonist, ICI118,551], for which the “mediation of the norepinephrine effect through ADRB2” value in assay [2] (addition of specific ADRB2 antagonist (ICI118,551 at 20 μM) to NE-treated cultures) is listed as “unlikely to be mediated through this receptor”.
With `CC(C)(C)c1cc(C(=O)C(C#N)=NNc2cccc(Cl)c2)no1` [Epac inhibitor], in assay [1], the “frequency of HSC-like cells after inhibition” value is recorded as “decreased” and the “hematopoietic cell generation efficiency / blood emergence (CD43)” value was “reduced”. Moreover, in assay [3], the “radial spreading of adherent endothelial-like cells” value is on record as “reduced”. In addition, the hemogenic endothelial fraction entry in assay [4] is recorded as “decreased”. Also, the “CXCR4 expression after Epac inhibition” value in [5] was “reduced”.
Take `CC(C)Cn1c(=O)n(C)c(=O)c2[nH]cnc21` [IBMX, 3-isobutyl-1-methylxanthine]: the “ROS levels in various hematopoietic phenotypes, including the HSC-like cells” value in [6] is recorded as “significantly lowered”.
With `NC[C@H](O)c1ccc(O)c(O)c1` [NE, Norepinephrine], the “HSC-like phenotype in total viable cells” value in [2] (300 μM (NE300) at day 10 and day 12, analysis at day 14) is given as “significantly increased”. Besides, the “frequency of CD34high CD90high endothelial precursors” value in [2] (NE added at 300 μM) was “trend for an increase”. In [2] (setting [8]), the “blood fraction (CD43/45+ in total viable)” value is listed as “unchanged” and the “progenitor fraction (CD34+ in CD43/45+ blood)” value is “unchanged”. The “HSC-like cells in the CD43/45+ blood population” value in [2] (NE treatment at day 10 and 12, analysis day 14) is “specifically and significantly upregulated”. Further, the “colony formation (CFU frequency) in methylcellulose” value in assay [7] (hematopoietic cells generated with 300 μM (NE300)) is listed as “significant increase”. The “distribution of colony types” value in assay [7] (hematopoietic cells generated with NE) was “not affected”.
In the case of `Nc1ncnc2c1nc(Sc1ccc(Cl)cc1)n2[C@@H]1O[C@@H]2COP(O)(=S)O[C@H]2[C@H]1O` (stereo partly shown) [PKA inhibitor, Rp-8-CPT-cAMPS], in assay [1], the “frequency of HSC-like cells after inhibition” value is on record as “no negative effect” and the “hematopoietic cell generation efficiency / blood emergence (CD43)” value is “no negative effect”. Moreover, the “radial spreading of adherent endothelial-like cells” value in assay [3] is listed as “did not have any effect”. Further, the hemogenic endothelial fraction result in assay [4] is on record as “no negative effect”.
On to `CCCCC[C@H](O)/C=C/[C@H]1[C@H](O)CC(=O)[C@@H]1C/C=C\CCCC(=O)O` [Prostaglandin E2 (PGE2), Prostaglandin E2], for which the “human cord blood engraftment” value in the assay on human cord blood is “enhances”.
`CCCC(=O)Nc1ncnc2c1ncn2[C@@H]1O[C@@H]2COP(=O)(O)O[C@H]2[C@H]1OC(=O)CCC` [dibutyryl-cAMP, N6,O2-dibutyrl-adenosine-3′,5′-cyclic monophosphate]: in assay [1], the “concentration required to increase HSC-like phenotype as compared to Forskolin” value stood at 10 fold and the HSC-like phenotype result is “upregulated”.
Consider `CNC[C@H](O)c1ccc(O)c(O)c1` [epinephrine], for which the “HSC egress from the BM” value with HSC egress from the BM is “increased”.

(Values after patent US11542473B2, “Methods and compositions for generating hematopoietic cells” (priority 2016, dated 2023).)
